Data taken from patent publication US20240197761A1, “FUCOSYLATION AND IMMUNE MODULATION IN CANCER” (H. LEE MOFFITT CANCER CENTER AND RESEARCH INSTITUTE, INC., priority 2021, published 2024).

Assays:
SW1 tumors = test: Control vs. L-fucose ± FTY720 model: tumor growth and flow cytometric profiling of tumors and lymph nodes (Table 1); format: in vivo, C3H/HeN mice
Method: FIGS. 15A-15E Lymph node egress is necessary for L-fucose-triggered tumor suppression; L-fucose increases intratumoral CD4+T stem and central memory cells. (a) Immune subpopulations markers use to profile by flow cytometry. (b) Volumetric growth curves for SW1 tumors in C3H/HeN mice fed without (Ctl) or with L-fucose (LF) and treated with FTY720 (Ctl mice administered FTY720: (FTY); LF-supplemented mice administered FTY720: (L+F)). FTY720 was administered at 20 μg per mouse every 2 days starting on Day 12, just prior to the initiation of LF (c) Pie charts showing ratios of intratumoral or lymph node-resident CD4+ or CD8+T cell subpopulations, as well as DC subtypes from mice at Day 14, 28, and 42 (each pie chart represents 4-5 mice). Assessment of cytotoxic CD4+ T cell populations (CRTAM+) and cytotoxic CD8+ T cell populations (GrzB+) from tumors at Day 28 (d) and Day 42 (e). The tumor growth curves are means±SEM from ≥7 mice per group. *=p<0.05.
Tumors of SW1 or SM1 melanoma cells from […] or C57BL/6 mice, respectively) were digested using 1× tumor digest buffer (0.5 mg/mL Collagenase I, 0.5 mg/mL Collagenase IV, 0.25 mg/mL Hyalyronidase V, 0.1 mg/mL DNAse I in HBSS (Millipore Sigma (St. Louis, MO)). Tumors were homogenized using the Miltenyi MACs dissociator. Red blood cells were lysed using ACK lysis buffer (Life Technologies, (Grand Island, NY)). Tumor homogenate cells were counted using a standard hemocytometer.
Total TILs were gated first to single cells (based on forward scatter height vs width, followed by side scatter height vs. width). Live cells were gated from the Zombie negative population from the population above. TILs were gated based on splenocyte size from a control spleen. Individual immune subpopulations were sub-gated from the total TIL population using the following staining criteria: CD3+ for CD3+ T cells; CD3+/CD4+/CD8− for CD4+T cells; CD3+/CD4−/CD8+ for CD8+ T cells, CD11c+/CD11b+ for DCs; either NK1.1 (for C57/BL6 mice) or DX5 (for C3H/HeJ) for NK cells; CD11b+/GR1+ for MDSC-like cells; and F4/80+ for macrophages. Single-cell suspensions from tumor and spleen tissue were stained with Live/Dead Zombie NIR (Biolegend, (San Diego, CA)) at 1:1,000 in PBS for 20 min. Cell suspensions were spun down and stained with the following with antibodies at 0.5 μg/ml per antibody: APC anti-mouse CD3, Pacific Blue anti-mouse CD4, BV785 anti-mouse CD8, PerCP anti-mouse CD25, FITC anti-mouse F4/80, PeCy7 anti-mouse CD11c, PE anti-mouse NK1.1 or PE anti-mouse DX5, and PerCP-Cy5.5 anti-mouse CD11 b. After staining, the cells were washed and fixed (2% formaldehyde), followed by another wash and flow cytometric analysis. The compensation controls were prepared using 0.5 μg/mL of each antibody with UltraComp eBeads, (ThermoFisher Scientific (Waltham, MA)). All samples were subject to flow cytometric profiling using a LSR Flow Cytometer (BD Biosciences (San Jose, CA)) and analysis as indicated using FlowJo software (BD Biosciences (San Jose, CA)).
SW1 or SM1 mouse melanoma cells were injected into syngeneic C3H/HeN (or NSG) female or C57BL/6 male mice, respectively. Cells were injected as follows: parental SW1 cells for FIG. 13A; parental SM1 cells for FIG. 13E; SW1 cells stably expressing either empty vector (EV) or mouse fucose kinase (mFuk) for FIG. 1L; and parental SW1 cells for FIG. 13M. FTY720 was administered at 20 μg every 2 days starting on Day 12, just prior to the initiation of LF, until endpoint.

BM-myeloid cells = test: Expression of MDSC biology-related genes in BM-myeloid cells; format: cell-based, mouse; conditions: 24 or 72 hours after initial L-fuc treatment
Method: The expression of key MDSC biology-related genes was measured at 24 or 72 hours after in initial L-fuc treatment of the cells. Reductions in ARGI, PARP, and CHOP expression (red boxes; the expression of these genes are known to be required for MDSC immunosuppression. Increase in STAT1 is shown in green.
Next, we investigated the effect of L-fuc on NO production of bone marrow derived MDSCs (FIGS. 8A and 8B). We observed that L-fuc abrogated NO production in all cases. […] We also wanted to look at how L-fuc treatment effected the expression of immunosuppression genes (FIG. 9). We assessed the expression of key MDSC biology-related genes at 24 or 72 hours after in initial L-fuc treatment of the cells. Generally, we observed reductions in ARGI, PARP, and CHOP expression. In contrast we observed upregulation of STAT1. To further assess how L-fuc/fucosylation affects myeloid phenotype, we modulated fucosylation using DMSO (control), 2-fluoro-fucose (2FIF, fucosylation inhibitor), or L-fuc in mouse bone marrow-derived myeloid progenitors treated ±GM/G-CSF (FIG. 10). We profiled changes In M-MDSC vs. PMN-IMDSC, as well as moDC, as we observed immunostimulatory activity. […] Shown are the average values irom 12 mice. We also observed that L-fucose alters TLR profiles of dendritic cells (FIG. 11).

C[C@H](O)[C@@H](O)[C@@H](O)[C@H](O)C=O [L-fucose]
cytotoxic CD4+T cells (CRTAM+) (SW1 tumors; Day 28): transiently but significantly increased | CD4 central memory, average # of cells (SW1 tumors; Day 28, lymph nodes): 2289.20 per 10^6 cells of total tumor | CD4 effector memory, average # of cells (SW1 tumors; Day 28, lymph nodes): 445.15 per 10^6 cells of total tumor | CD4 naïve, average # of cells (SW1 tumors; Day 28, lymph nodes): 9286.89 per 10^6 cells of total tumor | CD4 stem central memory, average # of cells (SW1 tumors; Day 28, lymph nodes): 53601.81 per 10^6 cells of total tumor | CD8 central memory, average # of cells (SW1 tumors; Day 28, lymph nodes): 295.92 per 10^6 cells of total tumor | CD8 effector memory, average # of cells (SW1 tumors; Day 28, lymph nodes): 888.80 per 10^6 cells of total tumor | CD8 naïve, average # of cells (SW1 tumors; Day 28, lymph nodes): 18072.26 per 10^6 cells of total tumor | CD8 stem central memory, average # of cells (SW1 tumors; Day 28, lymph nodes): 980.96 per 10^6 cells of total tumor | cDC1, average # of cells (SW1 tumors; Day 28, lymph nodes): 359.10 per 10^6 cells of total tumor | cDC2, average # of cells (SW1 tumors; Day 28, lymph nodes): 743.69 per 10^6 cells of total tumor | moDC, average # of cells (SW1 tumors; Day 28, lymph nodes): 37.66 per 10^6 cells of total tumor | CD4 central memory, average # of cells (SW1 tumors; Day 28, tumors): 6.04 per 10^6 cells of total tumor | CD4 effector memory, average # of cells (SW1 tumors; Day 28, tumors): 568.19 per 10^6 cells of total tumor | CD4 naïve, average # of cells (SW1 tumors; Day 28, tumors): 30.44 per 10^6 cells of total tumor | CD4 stem central memory, average # of cells (SW1 tumors; Day 28, tumors): 5.59 per 10^6 cells of total tumor | CD8 central memory, average # of cells (SW1 tumors; Day 28, tumors): 1.24 per 10^6 cells of total tumor | CD8 effector memory, average # of cells (SW1 tumors; Day 28, tumors): 108.29 per 10^6 cells of total tumor | CD8 naïve, average # of cells (SW1 tumors; Day 28, tumors): 34.60 per 10^6 cells of total tumor | CD8 stem central memory, average # of cells (SW1 tumors; Day 28, tumors): 0.00 per 10^6 cells of total tumor | cDC1, average # of cells (SW1 tumors; Day 28, tumors): 2301.44 per 10^6 cells of total tumor | cDC2, average # of cells (SW1 tumors; Day 28, tumors): 10732.04 per 10^6 cells of total tumor | moDC, average # of cells (SW1 tumors; Day 28, tumors): 20903.90 per 10^6 cells of total tumor | CD4 central memory, average # of cells (SW1 tumors; Day 42, lymph nodes): 1741.12 per 10^6 cells of total tumor | CD4 effector memory, average # of cells (SW1 tumors; Day 42, lymph nodes): 5032.79 per 10^6 cells of total tumor | CD4 naïve, average # of cells (SW1 tumors; Day 42, lymph nodes): 105779.76 per 10^6 cells of total tumor | CD4 stem central memory, average # of cells (SW1 tumors; Day 42, lymph nodes): 1587.46 per 10^6 cells of total tumor | CD8 central memory, average # of cells (SW1 tumors; Day 42, lymph nodes): 1741.12 per 10^6 cells of total tumor | CD8 effector memory, average # of cells (SW1 tumors; Day 42, lymph nodes): 5032.79 per 10^6 cells of total tumor | CD8 naïve, average # of cells (SW1 tumors; Day 42, lymph nodes): 105779.76 per 10^6 cells of total tumor | CD8 stem central memory, average # of cells (SW1 tumors; Day 42, lymph nodes): 1587.46 per 10^6 cells of total tumor | cDC1, average # of cells (SW1 tumors; Day 42, lymph nodes): 2141.34 per 10^6 cells of total tumor | cDC2, average # of cells (SW1 tumors; Day 42, lymph nodes): 4375.69 per 10^6 cells of total tumor | moDC, average # of cells (SW1 tumors; Day 42, lymph nodes): 1201.44 per 10^6 cells of total tumor | CD4 central memory, average # of cells (SW1 tumors; Day 42, tumors): 38.18 per 10^6 cells of total tumor | CD4 effector memory, average # of cells (SW1 tumors; Day 42, tumors): 111.09 per 10^6 cells of total tumor | CD4 naïve, average # of cells (SW1 tumors; Day 42, tumors): 82.01 per 10^6 cells of total tumor | CD4 stem central memory, average # of cells (SW1 tumors; Day 42, tumors): 16.67 per 10^6 cells of total tumor | CD8 central memory, average # of cells (SW1 tumors; Day 42, tumors): 13.46 per 10^6 cells of total tumor | CD8 effector memory, average # of cells (SW1 tumors; Day 42, tumors): 246.44 per 10^6 cells of total tumor | CD8 naïve, average # of cells (SW1 tumors; Day 42, tumors): 109.29 per 10^6 cells of total tumor | CD8 stem central memory, average # of cells (SW1 tumors; Day 42, tumors): 0.00 per 10^6 cells of total tumor | cDC1, average # of cells (SW1 tumors; Day 42, tumors): 648.96 per 10^6 cells of total tumor | cDC2, average # of cells (SW1 tumors; Day 42, tumors): 78.44 per 10^6 cells of total tumor | moDC, average # of cells (SW1 tumors; Day 42, tumors): 169.08 per 10^6 cells of total tumor | intratumoral CD4+T central and effector memory subpopulations (SW1 tumors; FIG. 15c): increases | intratumoral monocyte-derived DCs (moDCs) (SW1 tumors; FIG. 15c): significantly increased | lymph node cDC2s (SW1 tumors; FIG. 15c): significantly increased | L-fuc-triggered tumor suppression (SW1 tumors; with FTY720 (inhibition of lymph node egress)): completely abrogated | ARGI, PARP, and CHOP expression (BM-myeloid cells): reductions | STAT1 expression (BM-myeloid cells): upregulation
